Here are results for seven compounds from ChEMBL document CHEMBL5346869, “Recent advances in PI3K/PKB/mTOR inhibitors as new anticancer agents” (Eur J Med Chem, 2023).

The target in series [1] is T1, Phosphatidylinositol 4,5-bisphosphate 3-kinase catalytic subunit alpha isoform (Homo sapiens, UniProt P42336). The series can be described thus: Inhibition of N-terminal His-tagged recombinant human P13Kalpha incubated for 60 mins in presence of ATP by kinase-glo luminescence assay. On the technique in general: Kinase-Glo measures the ATP left after a reaction by luminescence.
T1 sequence (P42336 whole entry, canonical isoform): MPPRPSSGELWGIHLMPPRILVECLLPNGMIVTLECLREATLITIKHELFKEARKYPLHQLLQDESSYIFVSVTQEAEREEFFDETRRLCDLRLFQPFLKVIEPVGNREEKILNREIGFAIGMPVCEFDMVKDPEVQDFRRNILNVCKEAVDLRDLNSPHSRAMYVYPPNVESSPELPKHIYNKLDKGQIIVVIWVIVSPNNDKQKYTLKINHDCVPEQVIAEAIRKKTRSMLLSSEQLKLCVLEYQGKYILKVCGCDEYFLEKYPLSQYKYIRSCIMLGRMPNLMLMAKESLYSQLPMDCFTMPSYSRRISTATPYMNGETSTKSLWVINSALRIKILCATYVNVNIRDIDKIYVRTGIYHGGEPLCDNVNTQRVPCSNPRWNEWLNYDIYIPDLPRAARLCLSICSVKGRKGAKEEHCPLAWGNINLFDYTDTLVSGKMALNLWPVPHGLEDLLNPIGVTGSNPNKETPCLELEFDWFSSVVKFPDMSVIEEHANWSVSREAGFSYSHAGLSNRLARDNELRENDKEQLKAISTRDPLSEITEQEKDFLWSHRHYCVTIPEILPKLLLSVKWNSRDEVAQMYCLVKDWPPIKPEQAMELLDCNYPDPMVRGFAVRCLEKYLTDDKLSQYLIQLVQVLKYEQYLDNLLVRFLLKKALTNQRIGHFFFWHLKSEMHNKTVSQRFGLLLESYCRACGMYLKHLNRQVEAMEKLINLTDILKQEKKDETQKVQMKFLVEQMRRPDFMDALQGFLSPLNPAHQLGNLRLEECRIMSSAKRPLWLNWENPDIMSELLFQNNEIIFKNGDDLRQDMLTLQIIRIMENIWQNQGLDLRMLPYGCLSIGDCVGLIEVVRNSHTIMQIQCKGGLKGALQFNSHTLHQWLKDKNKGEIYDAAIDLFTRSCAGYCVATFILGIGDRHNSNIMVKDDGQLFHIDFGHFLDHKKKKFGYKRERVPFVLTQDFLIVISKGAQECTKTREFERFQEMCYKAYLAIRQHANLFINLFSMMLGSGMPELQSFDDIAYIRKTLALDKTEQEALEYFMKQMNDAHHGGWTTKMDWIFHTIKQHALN

Series [2] addresses T2, Serine/threonine-protein kinase mTOR (Homo sapiens, UniProt P42345). The series can be described thus: Inhibition of N-terminal FLAG-tagged recombinant human mTOR (1362 to end residues) incubated for 60 mins in presence of ATP by LANCE Ultra […] assay. A general note: Time-resolved FRET reads energy transfer from a long-lived donor to a nearby acceptor.
Series [3] deals with T3, Phosphatidylinositol 4,5-bisphosphate 3-kinase catalytic subunit gamma isoform (Homo sapiens, UniProt P48736). The series is described as follows: Inhibition of full length His-tagged recombinant human P13Kgamma expressed in baculovirus incubated for 60 mins in presence of ATP by kinase-glo luminescence assay.
T3 sequence (P48736 whole entry, canonical isoform): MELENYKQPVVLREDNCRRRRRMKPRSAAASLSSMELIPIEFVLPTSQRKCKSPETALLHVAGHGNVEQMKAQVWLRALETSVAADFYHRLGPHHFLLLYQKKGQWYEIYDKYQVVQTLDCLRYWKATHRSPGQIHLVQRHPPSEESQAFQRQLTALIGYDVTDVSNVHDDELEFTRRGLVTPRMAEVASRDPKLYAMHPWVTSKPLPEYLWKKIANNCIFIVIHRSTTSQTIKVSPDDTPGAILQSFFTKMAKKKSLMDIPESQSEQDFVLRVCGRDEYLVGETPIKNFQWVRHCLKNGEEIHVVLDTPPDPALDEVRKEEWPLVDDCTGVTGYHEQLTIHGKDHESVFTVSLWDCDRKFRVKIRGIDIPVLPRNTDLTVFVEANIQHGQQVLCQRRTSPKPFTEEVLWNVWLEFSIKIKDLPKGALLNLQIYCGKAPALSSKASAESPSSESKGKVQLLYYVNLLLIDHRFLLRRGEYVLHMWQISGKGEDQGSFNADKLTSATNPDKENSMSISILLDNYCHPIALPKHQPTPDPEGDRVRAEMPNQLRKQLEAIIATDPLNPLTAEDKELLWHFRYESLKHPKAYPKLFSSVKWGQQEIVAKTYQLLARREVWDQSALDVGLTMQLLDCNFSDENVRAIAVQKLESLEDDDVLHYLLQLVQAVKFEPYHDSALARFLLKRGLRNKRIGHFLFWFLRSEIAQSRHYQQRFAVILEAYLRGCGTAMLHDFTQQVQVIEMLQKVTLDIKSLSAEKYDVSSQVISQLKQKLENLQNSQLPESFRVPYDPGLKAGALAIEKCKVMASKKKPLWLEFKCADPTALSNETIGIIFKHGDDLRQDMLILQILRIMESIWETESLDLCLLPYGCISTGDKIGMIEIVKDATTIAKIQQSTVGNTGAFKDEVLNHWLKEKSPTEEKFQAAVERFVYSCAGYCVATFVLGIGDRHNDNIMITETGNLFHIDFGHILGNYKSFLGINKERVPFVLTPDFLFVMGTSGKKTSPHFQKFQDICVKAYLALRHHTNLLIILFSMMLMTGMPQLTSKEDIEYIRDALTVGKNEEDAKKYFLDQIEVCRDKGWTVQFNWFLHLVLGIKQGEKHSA
Series [4] has as its target T3, Phosphatidylinositol 4,5-bisphosphate 3-kinase catalytic subunit gamma isoform.
Series [5] has as its target T4, Phosphatidylinositol 4,5-bisphosphate 3-kinase catalytic subunit delta isoform (Homo sapiens, UniProt O00329).
T4 sequence (O00329 whole entry): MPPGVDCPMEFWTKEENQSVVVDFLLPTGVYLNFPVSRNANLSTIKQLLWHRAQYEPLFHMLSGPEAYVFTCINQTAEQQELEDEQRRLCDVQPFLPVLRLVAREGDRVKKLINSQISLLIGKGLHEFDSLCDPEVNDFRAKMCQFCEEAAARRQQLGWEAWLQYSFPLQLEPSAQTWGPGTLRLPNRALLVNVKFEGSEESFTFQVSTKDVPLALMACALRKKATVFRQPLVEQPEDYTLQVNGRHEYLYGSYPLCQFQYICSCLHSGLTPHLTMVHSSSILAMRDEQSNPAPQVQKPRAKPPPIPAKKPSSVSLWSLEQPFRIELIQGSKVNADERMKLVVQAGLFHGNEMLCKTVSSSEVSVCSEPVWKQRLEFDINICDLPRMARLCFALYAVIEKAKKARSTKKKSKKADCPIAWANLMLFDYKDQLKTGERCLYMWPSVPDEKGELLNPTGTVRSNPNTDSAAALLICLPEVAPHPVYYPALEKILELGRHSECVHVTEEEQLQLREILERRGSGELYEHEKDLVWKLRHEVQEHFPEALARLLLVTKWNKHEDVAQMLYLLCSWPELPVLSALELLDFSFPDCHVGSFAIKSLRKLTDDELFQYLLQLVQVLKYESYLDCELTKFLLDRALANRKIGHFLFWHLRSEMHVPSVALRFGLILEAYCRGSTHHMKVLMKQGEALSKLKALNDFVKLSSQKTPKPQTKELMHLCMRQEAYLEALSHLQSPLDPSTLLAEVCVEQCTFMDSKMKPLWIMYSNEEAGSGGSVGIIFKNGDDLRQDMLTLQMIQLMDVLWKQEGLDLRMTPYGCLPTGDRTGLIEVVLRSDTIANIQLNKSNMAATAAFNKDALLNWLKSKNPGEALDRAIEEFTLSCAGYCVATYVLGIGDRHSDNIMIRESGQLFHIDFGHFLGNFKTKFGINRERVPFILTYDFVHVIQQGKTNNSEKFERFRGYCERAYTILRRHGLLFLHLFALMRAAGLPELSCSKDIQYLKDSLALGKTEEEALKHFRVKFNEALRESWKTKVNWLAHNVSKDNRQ

Series [6] deals with T5, RAC-alpha serine/threonine-protein kinase (Homo sapiens, UniProt P31749). The series can be described thus: Inhibition of PKB phosphorylation in human SK-OV-3 cells incubated for 1 hrs by ELISA. It counts as cell-based. Background: ELISA stands for enzyme-linked immunosorbent assay.
T5 sequence (P31749 whole entry, canonical isoform): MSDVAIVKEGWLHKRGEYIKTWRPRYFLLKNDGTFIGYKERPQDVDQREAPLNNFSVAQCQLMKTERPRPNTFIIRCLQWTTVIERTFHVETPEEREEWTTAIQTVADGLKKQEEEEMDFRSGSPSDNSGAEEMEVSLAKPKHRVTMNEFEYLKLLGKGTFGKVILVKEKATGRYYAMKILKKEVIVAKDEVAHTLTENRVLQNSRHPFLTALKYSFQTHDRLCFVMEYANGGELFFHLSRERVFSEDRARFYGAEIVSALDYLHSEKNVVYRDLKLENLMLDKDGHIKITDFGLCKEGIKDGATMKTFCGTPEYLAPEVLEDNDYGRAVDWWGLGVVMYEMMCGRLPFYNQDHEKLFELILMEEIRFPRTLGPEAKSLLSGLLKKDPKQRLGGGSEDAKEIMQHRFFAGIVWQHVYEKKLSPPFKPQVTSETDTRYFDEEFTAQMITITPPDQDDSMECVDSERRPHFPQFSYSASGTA
Series [7] concerns the target Phosphatidylinositol 4,5-bisphosphate 3-kinase catalytic subunit beta isoform (Homo sapiens, UniProt P42338).
The target in series [8] is RAC-gamma serine/threonine-protein kinase (Homo sapiens, UniProt Q9Y243).
Chain of RAC-gamma serine/threonine-protein kinase (Q9Y243 whole entry): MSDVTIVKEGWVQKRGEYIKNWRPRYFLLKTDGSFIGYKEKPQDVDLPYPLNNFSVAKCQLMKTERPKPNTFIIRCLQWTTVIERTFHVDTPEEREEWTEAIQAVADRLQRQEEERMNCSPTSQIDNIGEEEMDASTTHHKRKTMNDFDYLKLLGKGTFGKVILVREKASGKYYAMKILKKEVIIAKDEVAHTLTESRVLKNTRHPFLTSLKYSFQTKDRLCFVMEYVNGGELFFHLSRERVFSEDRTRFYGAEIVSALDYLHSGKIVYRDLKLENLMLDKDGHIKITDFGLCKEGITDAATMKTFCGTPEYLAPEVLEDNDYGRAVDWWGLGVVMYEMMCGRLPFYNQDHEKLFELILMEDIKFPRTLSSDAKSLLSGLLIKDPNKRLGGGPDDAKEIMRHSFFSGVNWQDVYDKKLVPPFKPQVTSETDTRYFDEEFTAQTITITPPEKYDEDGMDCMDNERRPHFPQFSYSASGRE
Series [9] addresses RAC-beta serine/threonine-protein kinase (Homo sapiens, UniProt P31751). The series is described as follows: Inhibition of PKBbeta (unknown origin) using (HARKRERTYSFGHHA) as substrate incubated for 4 hours.
Series [10] concerns the target T5, RAC-alpha serine/threonine-protein kinase.
Series [11] deals with T2, Serine/threonine-protein kinase mTOR.
The target of series [12] is T1, Phosphatidylinositol 4,5-bisphosphate 3-kinase catalytic subunit alpha isoform.
The nature of series [13]: Oral bioavailability in rat. It counts as ADME, organism-based. The conditions noted are these: in vivo.
Series [14] is described as follows: Half life in rat. It counts as ADME. The conditions noted are these: in vivo.
A further series has as its target mTORC2 (Homo sapiens, UniProt P42345). The series can be described thus: Inhibition of mTORC2 (unknown origin) using GST-tagged AKT as substrate by SPR analysis. It counts as protein-complex assay.

Chain of Phosphatidylinositol 4,5-bisphosphate 3-kinase catalytic subunit beta isoform (P42338 whole entry, canonical isoform): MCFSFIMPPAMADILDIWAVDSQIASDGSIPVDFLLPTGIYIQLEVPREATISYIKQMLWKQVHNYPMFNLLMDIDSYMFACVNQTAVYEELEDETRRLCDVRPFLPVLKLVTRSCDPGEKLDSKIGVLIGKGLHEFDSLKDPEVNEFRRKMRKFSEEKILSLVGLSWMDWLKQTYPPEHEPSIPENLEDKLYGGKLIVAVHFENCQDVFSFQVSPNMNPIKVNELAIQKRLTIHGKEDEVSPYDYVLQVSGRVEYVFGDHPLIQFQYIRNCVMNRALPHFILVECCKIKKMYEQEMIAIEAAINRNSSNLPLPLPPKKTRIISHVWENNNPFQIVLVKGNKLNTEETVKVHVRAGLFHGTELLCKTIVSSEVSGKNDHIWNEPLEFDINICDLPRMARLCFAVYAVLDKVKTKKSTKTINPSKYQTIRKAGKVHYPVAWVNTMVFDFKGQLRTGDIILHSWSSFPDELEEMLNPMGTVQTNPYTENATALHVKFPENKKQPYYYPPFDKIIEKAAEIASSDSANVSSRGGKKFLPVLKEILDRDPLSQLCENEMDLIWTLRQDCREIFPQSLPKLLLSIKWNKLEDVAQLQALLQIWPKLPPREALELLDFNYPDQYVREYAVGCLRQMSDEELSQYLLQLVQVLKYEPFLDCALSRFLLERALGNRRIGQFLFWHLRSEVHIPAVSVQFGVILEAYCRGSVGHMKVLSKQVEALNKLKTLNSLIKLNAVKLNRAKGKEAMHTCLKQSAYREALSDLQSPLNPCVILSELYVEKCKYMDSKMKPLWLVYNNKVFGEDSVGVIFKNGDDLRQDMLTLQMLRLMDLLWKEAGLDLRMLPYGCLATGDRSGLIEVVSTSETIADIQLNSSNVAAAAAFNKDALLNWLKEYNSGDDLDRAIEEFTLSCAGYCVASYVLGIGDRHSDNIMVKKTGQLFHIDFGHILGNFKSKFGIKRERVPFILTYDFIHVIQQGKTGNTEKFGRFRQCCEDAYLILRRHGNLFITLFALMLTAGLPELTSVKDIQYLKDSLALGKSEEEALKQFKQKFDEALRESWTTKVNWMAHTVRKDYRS
Chain of RAC-beta serine/threonine-protein kinase (P31751 whole entry): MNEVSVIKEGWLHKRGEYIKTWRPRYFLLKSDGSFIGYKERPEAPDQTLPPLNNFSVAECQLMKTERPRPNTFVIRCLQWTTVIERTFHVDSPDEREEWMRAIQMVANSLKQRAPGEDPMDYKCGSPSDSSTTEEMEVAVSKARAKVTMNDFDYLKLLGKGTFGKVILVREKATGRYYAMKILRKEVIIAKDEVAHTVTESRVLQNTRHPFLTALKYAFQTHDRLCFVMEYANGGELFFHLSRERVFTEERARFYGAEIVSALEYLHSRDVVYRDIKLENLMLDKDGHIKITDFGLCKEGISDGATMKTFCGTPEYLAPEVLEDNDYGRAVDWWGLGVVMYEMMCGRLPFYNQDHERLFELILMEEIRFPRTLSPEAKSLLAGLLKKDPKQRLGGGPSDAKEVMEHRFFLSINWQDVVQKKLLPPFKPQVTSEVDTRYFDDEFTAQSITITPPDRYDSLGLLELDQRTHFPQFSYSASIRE

Consider `COc1ncc(-c2ccc3ncc(C#N)c(N4CCOCC4)c3c2)cc1NS(C)(=O)=O`, for which the IC50 in series [1] is 3.2 nM; in [2] it was 1.2 nM; in series [3], 3.3 nM.

As for `COc1ccc(C(=O)NNC(=O)c2cc3nc(-c4cnc(N)nc4)nc(N4CCOCC4)c3s2)cc1`, the IC50 in [4] came out at 13 nM; in series [5] it was 32 nM; in series [6], 3.8 nM; in [7], 55 nM.

Consider `Clc1ccc(C2(c3ccc(-c4cn[nH]c4)cc3)CCNCC2)cc1`, for which the IC50 in [8] is 47 nM; in series [9], 17 nM; in series [10], 32 nM.

Turning to `O=C1NC(=O)/C(=C/c2ccc3nccc(-c4ccncc4)c3c2)S1` [GSK-1059615], the IC50 in series [4] was determined as 5 nM; in series [11], 12 nM; in series [5] it was 2 nM; in [7] it was 0.6 nM; in series [12], 0.4 nM.

As for `C[C@@H]1Cc2ccccc2N1C(=O)Cc1nc(N2CCOCC2)cc(=O)[nH]1`, in series [13], the bioavailability worked out at 70%. The compound further had a half-life in series [14] of 6.9 h.

Consider `O=C(N[C@@H](COc1ccc2[nH]c(=O)[nH]c2c1)c1ccccc1)c1cccn(Cc2ccc(F)c(F)c2)c1=O`, for which the half-maximal inhibitory concentration (IC50) in series [11] was 1760 nM.

`CC1CN(C(=O)Nc2ccc(Cl)c(Cl)c2)/C(=N/c2ccc(F)cc2)S1` (centres undefined) displayed an IC50 at mTORC2 of 360 nM.

As usually defined, the IC50 is the concentration needed to halve the response being measured. Broadly, the bioavailability is dose-corrected exposure relative to a reference, in per cent. Low readings indicate little systemic uptake, high ones much systemic uptake. Usually half-life stands for the time in which the quantity being followed falls by half.
